# Molecular target: human 11β-HSD1 microsome fraction (Homo sapiens, UniProt P28845)
# Test: Enzymatic 11Beta-HSD1 test (SPA-based detection)
# Type: biochemical
# Settings: [1,2-3H]-cortisone, NADPH, 37° C. for 1 hour
# Method: Enzymatic 11Beta-HSD1 Test:
# To measure the activity of the compounds, an SPA-based detection method (Solly et al. 2005) was employed. First of all, 20 μl of the human 11β-HSD1 microsome fraction (0.2 μg of protein), prepared in 50 mM HEPES, 0.1% BSA (w/v), were applied to a plate with 384 wells. The test compounds (0.09 μl) were applied to the assay plate in 100% DMSO. The reaction was started by addition of 20 μl of [1,2-^3H]-cortisone (0.1 μCi/[…]) in assay buffer comprising 25 mM HEPES, 100 mM KCl, 5 mM NaCl, 2 mM MgCl2 and 0.25 mM NADPH. The plate was agitated at 37° C. for 1 hour. At the same time, a stop solution comprising 20 mg/ml SPA-PVT beads, 1.6 mg/ml monoclonal cortisol antibody and 0.01 mM SSR110887 (inhibitor from the Biovitrium patent) in 50 mM HEPES, 1 M NaCl and 1 M KCl was stirred at room temperature. To stop the reaction, 25 μl of the stop solution were added to each well. The plate was agitated gently at room temperature for 1 further hour and then centrifuged at 500 gav for 1 min, in order that the SPA beads could settle out. The plate was then read in a Wallac-1450-Microbeta unit with a standard SPA program (counting time 1 min/well). The comparative compound was glycyrrhetinic acid.
# Protein and radioactive substrate were dispensed with a Biomek FX unit (Beckman Coulter) for handling liquids. The test compounds were added with a Cybi-Well equipped with a 90 nl pin tool (CyBio).
# Lit.: Solly S, Mundt S S, Zokian H J, Juy-Fang Ding G, Hermanowski-Vosatka A, Strulovici B and Zheng W. High-throughput screening of 11β-Hydroxysteroid dehydrogenase type 1 in scintillation proximity format. Assay Drug Dev Technol 2005; 3:377-384.
# Sequence of human 11β-HSD1 microsome fraction (P28845 whole entry): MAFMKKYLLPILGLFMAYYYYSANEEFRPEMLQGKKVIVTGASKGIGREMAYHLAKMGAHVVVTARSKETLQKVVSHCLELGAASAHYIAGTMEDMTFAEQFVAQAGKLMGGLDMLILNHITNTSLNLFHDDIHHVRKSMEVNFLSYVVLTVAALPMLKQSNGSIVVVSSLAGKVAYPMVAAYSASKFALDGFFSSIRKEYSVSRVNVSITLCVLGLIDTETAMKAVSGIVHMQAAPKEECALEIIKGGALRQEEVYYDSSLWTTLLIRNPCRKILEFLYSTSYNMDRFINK
row,IC50,Structure (SMILES)
1,4 nM,"Cc1ccc(F)cc1[C@H](CCO)NC1=NS(=O)(=O)C(Cc2ccccc2)C(C)(C)O1 (stereo partly drawn) [Example 19, (S)-3-(5-Benzyl-6,6-dimethyl-4,4-dioxo-5,6-dihydro-4H-4lambda6-[1,4,3]oxathiazin-2-ylamino)-3-(5-fluoro-2-methyl-phenyl)-propan-1-ol]"
2,5 nM,"CC1(C)OC(N[C@@H](CCO)c2ccccc2F)=NS(=O)(=O)C1Cc1cccc(-c2ccccc2)c1 (stereo partly drawn) [Example 9, (S)-3-(5-Biphenyl-3-ylmethyl-6,6-dimethyl-4,4-dioxo-5,6-dihydro-4H-4lambda6-[1,4,3]oxathiazin-2-ylamino)-3-(2-fluoro-phenyl)-propan-1-ol]"
3,5 nM,"C[C@H](NC1=NS(=O)(=O)C(C)(Cc2ccccc2)C(C)(C)O1)c1ccccc1F (stereo partly drawn) [Example 5, (5-Benzyl-5,6,6-trimethyl-4,4-dioxo-5,6-dihydro-4H-4lambda6-[1,4,3]oxathiazin-2-yl)-[(S)-1-(2-fluorophenyl)-ethyl]-amine]"
4,62 nM,"C[C@H](NC1=NS(=O)(=O)[C@H](Cc2ccc(NCCN(C)C)cc2)C(C)(C)O1)c1ccccc1F [Example 52, N-(4-{(R)-2-[(S)-1-(2-fluorophenyl)-ethylamino]-dimethyl-4,4-dioxo-5,6-dihydro-4H-4lambda6-[1,4,3]oxathiazin-5-ylmethyl}-phenyl)-N′,N′,- dimethyl-ethane-1,2-diamine]"
5,17 nM,CC1(C)OC(N[C@@H](CCO)c2ccccc2F)=NS(=O)(=O)C1Cc1ccc(CCCN2CCOCC2)cc1 (stereo partly drawn) [Example 31]
6,4 nM,"C[C@H](NC1=NS(=O)(=O)C(C)(Cc2ccc(Br)cc2)C(C)(C)O1)c1ccccc1F (stereo partly drawn) [Example 3, [5-(4-Bromobenzyl)-5,6,6-trimethyl-4,4-dioxo-5,6-dihydro-4H-4lambda6-[1,4,3]oxathiazin-2-yl]-[(S)-1-(2-fluorophenyl)-ethyl]-amine]"
7,8 nM,"CC1(C)OC(N[C@@H](CCO)c2ccccc2Cl)=NS(=O)(=O)C1Cc1ccccc1 (stereo partly drawn) [Example 11, (S)-3-(5-Benzyl-6,6-dimethyl-4,4-dioxo-5,6-dihydro-4H-4lambda6-[1,4,3]oxathiazin-2-ylamino)-3-(2-chlorophenyl)-propan-1-ol]"
8,20 nM,CN1CCC(c2ccc(CC3C(C)(C)OC(N[C@@H](CCO)c4ccccc4F)=NS3(=O)=O)cc2)CC1 (stereo partly drawn) [Example 25]
9,24 nM,"C[C@H](NC1=NS(=O)(=O)C(Cc2ccc(C3CCN(C4COC4)CC3)nc2)C(C)(C)O1)c1ccccc1F (stereo partly drawn) [Example 56, [6,6-Dimethyl-5-(1′-oxetan-3-yl-1′,2′,3′,4′,5′,6′-hexahydro-[2,4′]bipyridinyl-5-ylmethyl)-4,4-dioxo-5,6-dihydro-4H-4lambda6-[1,4,3]oxathiazin-2-yl]-[(S)-1-(2-fluorophenyl)-ethyl]-amine]"
10,4 nM,"CC1(C)OC(N[C@@H](CCO)c2ccccc2F)=NS(=O)(=O)C1Cc1ccc(-c2ccccc2)cc1 (stereo partly drawn) [Example 10, (S)-3-(5-Biphenyl-4-ylmethyl-6,6-dimethyl-4,4-dioxo-5,6-dihydro-4H-4lambda6-[1,4,3]oxathiazin-2-ylamino)-3-(2-fluoro-phenyl)-propan-1-ol]"
11,7 nM,"CC1(C)OC(N[C@@H](CCO)c2ccccc2F)=NS(=O)(=O)C1Cc1ccc(-c2ccc(C(F)(F)F)cn2)cc1 (stereo partly drawn) [Example 8, (S)-3-{6,6-Dimethyl-4,4-dioxo-5-[4-(5-trifluoromethyl-pyridin-2-yl)-benzyl]-5,6-dihydro-4H-4lambda6-[1,4,3]oxathiazin-2-ylamino}-3-(2-fluoro-phenyl)-propan-1-ol]"
12,5 nM,"CC1(C)OC(NC23CCC(F)(CC2)CC3)=NS(=O)(=O)C1Cc1ccccc1 (stereo not drawn) [Example 20, (5-Benzyl-6,6-dimethyl-4,4-dioxo-5,6-dihydro-4H-4lambda6-[1,4,3]oxathiazin-2-yl)-(4-fluoro-bicyclo[2.2.2]oct-1-yl)-amine]"
13,5 nM,"COC(=O)N1CCC(c2ccc(CC3C(C)(C)OC(N[C@@H](C)c4ccccc4F)=NS3(=O)=O)cn2)CC1 (stereo partly drawn) [Example 44, 5-{2-[(S)-1-(2-fluorophenyl)-ethylamino]-6,6-dimethyl-4,4-dioxo-5,6-dihydro-4H-4lambda6-[1,4,3]oxathiazin-5-ylmethyl}-3′,4′,5′,6′-tetrahydro-2′H-[2,4′]bipyridinyl-1′-carboxylic acid methyl ester]"
14,30 nM,"CNCCCc1ccc(CC2C(C)(C)OC(N[C@@H](CCO)c3ccccc3F)=NS2(=O)=O)cc1 (stereo partly drawn) [Example 33, (S)-3-{6,6-Dimethyl-5-[4-(3-methylamino-propyl)-benzyl]-4,4-dioxo-5,6-dihydro-4H-4lambda6-[1,4,3]oxathiazin-2-ylamino}-3-(2-fluorophenyl)-propan-1-ol]"
15,5 nM,"CC1(C)OC(N[C@@H](CCO)c2ccccc2)=NS(=O)(=O)C1Cc1ccc(Cl)cc1 (stereo partly drawn) [Example 1, (S)-3-[5-(4-Chlorobenzyl)-6,6-dimethyl-4,4-dioxo-5,6-dihydro-4H-4lambda6-[1,4,3]oxathiazin-2-ylamino]-3-phenyl-propan-1-ol]"
16,7 nM,"CC1(C)OC(N[C@@H](CCO)c2ccccc2)=NS(=O)(=O)C1Cc1ccccc1 (stereo partly drawn) [Example 2, (S)-3-(5-Benzyl-6,6-dimethyl-4,4-dioxo-5,6-dihydro-4H-4lambda6-[1,4,3]oxathiazin-2-ylamino)-3-phenyl-propan-1-ol]"
17,4 nM,"CC1(C)OC(N[C@@H](CCO)c2cc(F)ccc2F)=NS(=O)(=O)C1Cc1ccccc1 (stereo partly drawn) [Example 17, (S)-3-(5-Benzyl-6,6-dimethyl-4,4-dioxo-5,6-dihydro-4H-4lambda6-[1,4,3]oxathiazin-2-ylamino)-3-(2,5-difluorophenyl)-propan-1-ol]"
18,5 nM,"CC1(C)OC(N[C@@H](CCO)c2ccccc2F)=NS(=O)(=O)C1Cc1cccc2ccccc12 (stereo partly drawn) [Example 21, (S)-3-(6,6-Dimethyl-5-naphthalen-1-ylmethyl-4,4-dioxo-5,6-dihydro-4H-4lambda6-[1,4,3]oxathiazin-2-ylamino)-3-(2-fluorophenyl)-propan-1-ol]"
19,9 nM,"CC1(C)OC(N[C@@H](CCO)c2ccccc2F)=NS(=O)(=O)C1Cc1ccc(C2CCN(C3CC3)CC2)cc1 (stereo partly drawn) [Example 28, (S)-3-{5-[4-(1-Cyclopropyl-piperidin-4-yl)-benzyl]-6,6-dimethyl-4,4-dioxo-5,6-dihydro-4H-4lambda6-[1,4,3]oxathiazin-2-ylamino}-3-(2-fluorophenyl)-propan-1-ol]"
20,38 nM,CN(CCO)CCCc1ccc(CC2C(C)(C)OC(N[C@@H](CCO)c3ccccc3F)=NS2(=O)=O)cc1 (stereo partly drawn) [Example 36]
21,17 nM,"CC1(C)OC(N[C@@H](CCO)c2ccccc2F)=NS(=O)(=O)C1Cc1ccc(C2=CCNCC2)cc1 (stereo partly drawn) [Example 23, (S)-3-{6,6-Dimethyl-4,4-dioxo-5-[4-(1,2,3,6-tetrahydro-pyridin-4-yl)-benzyl]-5,6-dihydro-4H-4lambda6-[1,4,3]oxathiazin-2-ylamino}-3-(2-fluoro-phenyl)-propan-1-ol]"
22,10 nM,"CC1(C)OC(N[C@@H](CCO)c2ccc(Cl)cc2)=NS(=O)(=O)C1Cc1ccccc1 (stereo partly drawn) [Example 15, (S)-3-(5-Benzyl-6,6-dimethyl-4,4-dioxo-5,6-dihydro-4H-4lambda6-[1,4,3]oxathiazin-2-ylamino)-3-(4-chlorophenyl)-propan-1-ol]"
23,6 nM,"CC1(C)OC(N[C@@H](CCO)c2cccc(F)c2Cl)=NS(=O)(=O)C1Cc1ccccc1 (stereo partly drawn) [Example 13, (S)-3-(5-Benzyl-6,6-dimethyl-4,4-dioxo-5,6-dihydro-4H-4lambda6-[1,4,3]oxathiazin-2-ylamino)-3-(2-chloro-3-fluorophenyl)-propan-1-ol]"
24,3 nM,"CC1(C)OC(N[C@@H](CCO)c2ccccc2F)=NS(=O)(=O)C1(C)Cc1ccc(Br)cc1 (stereo partly drawn) [Example 4, (S)-3-[5-(4-Bromobenzyl)-5,6,6-trimethyl-4,4-dioxo-5,6-dihydro-4H-4lambda6-[1,4,3]oxathiazin-2-ylamino]-3-(2-fluorophenyl)-propan-1-ol]"

# From patent US8846666B2, “Oxathiazine derivatives which are substituted with benzyl or heteromethylene groups, method for producing them, their use as medicine and drug containing said derivatives and the use thereof” (Sanofi, priority 2011, dated 2014)
